Measured values taken from patent US4933346A, “Diarylalkyl piperazine derivatives, a process for their preparation, their use, and medicaments containing them” (Hoechst Aktiengesellschaft, priority 1987, dated 1990).
Counter-ions that a name gives are not always drawn.

Molecular target: ^3 H-nitrendipine binding, membrane preparation obtained from the cortex of the rat brain
Assay: displacement of tritium-labeled nitrendipine in a membrane preparation from the cortex of the rat brain
Conditions: ^3 H-nitrendipine 0.1 nM, 25° C., 60 min, pH 7.4; unspecific binding with 1 μM nifedipine
Experimental: We carried out this test in a membrane preparation obtained from the cortex of the rat brain and washed several times, the method which we used being essentially that of R. J. Gould et al. (Proc. Natl. Acad. Sci. USA 79, 3656 [1982]). […] The membrane fractions were removed by vacuum filtration through Whatman GF/F fiber glass filters, and the radioactivity was measured in a liquid scintillation counter. We determined the unspecific ^3 H-nitrendipine binding in the presence of 1 μM nifedipine. The IC50 is determined as characteristic quantity, i.e. the concentration of test substance which is able to displace 50% of the radiolabeled nitrendipine.

| SMILES | IC50 |
| --- | --- |
| Cc1cccc(C)c1NC(=O)CN1CCN(CCCC(c2ccc(F)cc2)c2ccc(F)cc2)CC1 [Lidoflazine, lidoflazine, reference compound] | 430 nM |
| O=[N+]([O-])c1ccc(SCCN2CCN(CCCC(c3ccc(F)cc3)c3ccc(F)cc3)CC2)cc1 [Example 4, 1-[4,4-bis(4-fluorophenyl)butyl]-4-[2-(4-nitrophenylthio)ethyl]piperazine dihydrochloride] | 22 nM |

Now those with a lower IC50, led by results:

| IC50 | SMILES |
| --- | --- |
| 20 nM | Cc1ccc(SCCN2CCN(CCCC(c3ccc(F)cc3)c3ccc(F)cc3)CC2)cc1 [Example 2, 1-[4,4-bis(4-fluorophenyl)butyl]-4-[2-(4-methylphenylthio)ethyl]piperazine dihydrochloride] |
| 7 nM | Fc1ccc(SCCN2CCN(CCCC(c3ccc(F)cc3)c3ccc(F)cc3)CC2)cc1 [Example 3, 1-[4,4-bis(4-fluorophenyl)butyl]-4-[2-(4-fluorophenylthio)ethyl]piperazine dihydrochloride] |
| 4 nM | Fc1ccc(C(CCCN2CCN(CCSc3ccc(Cl)cc3)CC2)c2ccc(F)cc2)cc1 [Example 1, 1-[4,4-bis(4-fluorophenyl)butyl]-4-[2-(4-chlorophenylthio)ethyl]piperazine] |
| 1.2 nM | Fc1ccc(C(CCCN2CCN(CCSc3cccc(Cl)c3)CC2)c2ccc(F)cc2)cc1 [Example 5, 1-[4,4-bis(4-fluorophenyl)butyl]-4-[2-(3-chlorophenylthio)ethyl]piperazine dihydrochloride] |
